Assays:
[1] = test system: systolic blood pressure of spontaneously hypertensive rats (SHR); experiment: Antihypertensive activity in spontaneously hypertensive rats (SHR); format: in vivo, rat; conditions: SHR Okomoto-Aoki strain; oral dose of 50 mg/kg; one hour following administration
Description: Antihypertensive activity is determined in spontaneously hypertensive rats (SHR) of the Okomoto-Aoki strain. Systolic blood pressure of the SHR is measured from the caudal artery by means of an indirect method utilizing a photocell transducer/trail cuff occluder system. Time response relationships are determined for each compound following an oral dose of 50 mg/kg. Data are expressed as mm of Hg decrease from control values. Statistical significance is determined using a 2 tailed "t" test comparing drug treatment response values to those obtained from concurrent vehicle treated animals. Under these conditions the compound 5-[2-[(2,3-dihydro-1,4-benzodioxan-2-ylmethyl)amino]-1-hydroxyethyl]-2-hydroxybenzamide lowered blood pressure by 24 mm of Hg one hour following administration of the drug substance.

β-Adrenergic receptor = biological target: T1, β-Adrenergic receptor (Cavia porcellus, UniProt H0W3H1); experiment: β-Adrenergic receptor blocking activity, isolated guinea pig atria, isoproterenol as agonist; format: cell-based; conditions: increase in rate, read-out: pA2 value (β-adrenergic receptor blocking activity) (converted)
T1 construct: isolated guinea pig atria preparation; from tissue; host or cells: isolated guinea pig atria
Description: β-Adrenergic receptor blocking activity is determined in vitro by performing cumulative dose-response experiments in the isolated guinea pig atria preparation using isoproterenol as the agonist. The response (increase in rate) of the guinea pig atria preparation in the presence of logarithmically increasing concentrations of the compounds being tested are expressed as percent of the maximal attainable response. Relative antagonistic potency is expressed as a pA2 value, as defined above.

α-Adrenergic receptor = α-Adrenergic receptor blocking activity, isolated rabbit aortic strip, norepinephrine as agonist; format: cell-based; conditions: contractile response
Description: α-Adrenergic receptor blocking activity is determined in vitro by performing cumulative dose-response experiments in the isolated rabbit aortic strip preparation using norepinephrine as the agonist. The contractile response of the rabbit strip preparation in the presence of logarithmically increasing concentrations of the compounds being tested are expressed as percent of the maximal attainable response. Relative antagonistic potency is expressed as a pA2 value.

T1 sequence (H0W3H1 1-470): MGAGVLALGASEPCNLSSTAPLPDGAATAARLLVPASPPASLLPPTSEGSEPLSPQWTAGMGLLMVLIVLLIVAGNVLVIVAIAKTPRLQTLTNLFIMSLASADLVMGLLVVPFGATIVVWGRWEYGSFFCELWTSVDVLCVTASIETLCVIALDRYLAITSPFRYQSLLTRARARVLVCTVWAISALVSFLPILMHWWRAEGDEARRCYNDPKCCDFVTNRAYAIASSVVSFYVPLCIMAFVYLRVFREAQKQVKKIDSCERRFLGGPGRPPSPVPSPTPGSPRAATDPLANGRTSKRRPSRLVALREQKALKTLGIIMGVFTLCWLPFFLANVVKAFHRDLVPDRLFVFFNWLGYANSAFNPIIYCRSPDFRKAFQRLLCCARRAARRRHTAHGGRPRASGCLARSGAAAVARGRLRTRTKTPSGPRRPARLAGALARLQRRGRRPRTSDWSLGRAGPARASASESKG

Q: Which results are given for `NC(=O)c1cc(C(O)CNCC2COc3ccccc3O2)ccc1O` (stereo not drawn) [5-[2-[(2,3-dihydro-1,4-benzodioxan-2-ylmethyl)amino]-1-hydroxyethyl]-2-hydroxybenzamide]?
A: systolic blood pressure decrease from control values [1]: 24 mm of Hg; Kb (β-Adrenergic receptor): 1450 nM; pA2 value (α-adrenergic receptor blocking activity) (α-Adrenergic receptor): 6.20
